Experimental data from patent US11464749B2, “Bismuth-thiol compositions and methods of use” (Microbion Corporation, priority 2018, dated 2022).
Marks after values point to notes of the source that are not given here.

Assays:
Experiment in all cases: Broth microdilution antifungal susceptibility (Example 13)
Type in all cases: cell-based
[1] = tested on: Candida glabrata
[2] = tested on: Candida albicans
[3] = tested on: A. niger; settings: A. niger ATCC 29508
[4] = tested on: Candida krusei
[5] = tested on: Candida auris
[6] = tested on: A. flavus; settings: for MIC0: comparators, read time not given
[7] = tested on: A. fumigatus; settings: for MIC0: comparators, read time not given
[8] = tested on: A. terreus; settings: A. terreus MMX 8229
[9] = isolate ATCC 90030 (Susceptible)
[10] = isolate ATCC MYA-2950 (Susceptible)
[11] = isolate MMX 7103 (CASP-R, MICA-R)
[12] = isolate MMX 7285 (CASP-R, MICA-R)
[13] = isolate MMX 7307 (CASP-R, MICA-R, FLU-R)
[14] = isolate ATCC 90028 (Susceptible), 24 hr
[15] = isolate ATCC 204276 (MICA-R), 24 hr
[16] = isolate ATCC MYA-2732 (FLU-R, VORI-I), 24 hr
[17] = isolate MMX 7053 (Susceptible), 24 hr
[18] = isolate MMX 7067 (FLU-R, VORI-R), 24 hr
[19] = isolate MMX 7403 (Susceptible), 24 hr
[20] = isolate MMX 7424 (CASP-R, MICA-R), 24 hr
[21] = isolate MMX 7430 (Susceptible), 24 hr
[22] = isolate MMX 7437 (FLU-I), 24 hr
[23] = comparators, read time not given
[24] = isolate ATCC 14243 (Susceptible)
[25] = isolate ATCC 96685 (Susceptible)
[26] = isolate MMX 9878 (MICA-I, VORI-I)
[27] = isolate MMX 9863 (FLU-R, VORI-R)
[28] = isolate MMX 9864 (FLU-R, VORI-R)
[29] = isolate MMX 9865 (FLU-R, VORI-R)
[30] = isolate MMX 9866 (FLU-R, VORI-R)
[31] = isolate MMX 9867 (FLU-R, VORI-R)
[32] = isolate MMX 9868 (FLU-R, VORI-R)
[33] = isolate MMX 9869 (FLU-R, VORI-R)
[34] = isolate MMX 9870 (FLU-R, VORI-R)
[35] = 48 hr only, insufficient growth for 24 hr read

C[C@@H](c1ncncc1F)[C@](O)(Cn1cncn1)c1ccc(F)cc1F [VORI]
MIC2 (50% inhibition) [1, 9]: 0.12 µg/mL
MIC2 (50% inhibition) [1, 10]: 0.12 µg/mL
MIC2 (50% inhibition) ([1]; isolate MMX 7087 (Susceptible)): 0.03 µg/mL
MIC2 (50% inhibition) ([1]; isolate MMX 7093 (FLU-R)): 2 µg/mL
MIC2 (50% inhibition) ([1]; isolate MMX 7101 (FLU-R)): 2 µg/mL
MIC2 (50% inhibition) [1, 11]: 0.12 µg/mL
MIC2 (50% inhibition) ([1]; isolate MMX 7111 (Susceptible)): 0.06 µg/mL
MIC2 (50% inhibition) [1, 12]: 1 µg/mL
MIC2 (50% inhibition) [1, 13]: 4 µg/mL
MIC2 (50% inhibition) ([1]; isolate MMX 7549 (Susceptible)): 0.06 µg/mL
MIC2 (50% inhibition) [2, 14]: ≤0.008 µg/mL
MIC2 (50% inhibition) [2, 15]: ≤0.008 µg/mL
MIC2 (50% inhibition) [2, 16]: 0.5 µg/mL
MIC2 (50% inhibition) [2, 17]: ≤0.008 µg/mL
MIC2 (50% inhibition) [2, 18]: >8 µg/mL
MIC2 (50% inhibition) [2, 19]: ≤0.008 µg/mL
MIC2 (50% inhibition) [2, 20]: ≤0.008 µg/mL
MIC2 (50% inhibition) [2, 21]: ≤0.008 µg/mL
MIC2 (50% inhibition) [2, 22]: 0.12 µg/mL
MIC2 (50% inhibition) ([2]; isolate MMX 7445 (FLU-R, VORI-R), 24 hr): >8 µg/mL
MIC0 [3, 23]: 0.5 µg/mL
MIC2 (50% inhibition) ([4]; isolate ATCC 6258 (MICA-I)): 0.12 µg/mL
MIC2 (50% inhibition) [4, 24]: 0.06 µg/mL
MIC2 (50% inhibition) [4, 25]: 0.5 µg/mL
MIC2 (50% inhibition) ([4]; isolate MMX 7125 (Susceptible)): 0.25 µg/mL
MIC2 (50% inhibition) ([4]; isolate MMX 7128 (Susceptible)): 0.12 µg/mL
MIC2 (50% inhibition) ([4]; isolate MMX 7141 (Susceptible)): 0.12 µg/mL
MIC2 (50% inhibition) ([4]; isolate MMX 7153 (MICA-R)): 0.25 µg/mL
MIC2 (50% inhibition) ([4]; isolate MMX 7155 (Susceptible)): 0.25 µg/mL
MIC2 (50% inhibition) ([4]; isolate MMX 7563 (Susceptible)): 0.25 µg/mL
MIC2 (50% inhibition) [4, 26]: 1 µg/mL
MIC2 (50% inhibition) ([5]; isolate MMX 9862 (Susceptible)): 0.03 µg/mL
MIC2 (50% inhibition) [5, 27]: >8 µg/mL
MIC2 (50% inhibition) [5, 28]: 2 µg/mL
MIC2 (50% inhibition) [5, 29]: 8 µg/mL
MIC2 (50% inhibition) [5, 30]: 8 µg/mL
MIC2 (50% inhibition) [5, 31]: 8 µg/mL
MIC2 (50% inhibition) [5, 32]: >8 µg/mL
MIC2 (50% inhibition) [5, 33]: 2 µg/mL
MIC2 (50% inhibition) [5, 34]: 4 µg/mL
MIC2 (50% inhibition) ([5]; isolate MMX 9871 (Susceptible)): 1 µg/mL
MIC0 ([6]; A. flavus ATCC 22546): 1 µg/mL
MIC0 ([6]; A. flavus ATCC 204304): 2 µg/mL
MIC0 ([6]; A. flavus MMX 7935): 0.5 µg/mL
MIC0 ([7]; A. fumigatus ATCC 204305): 0.5 µg/mL
MIC0 ([7]; A. fumigatus ATCC MYA-3626): 0.5 µg/mL
MIC0 ([7]; A. fumigatus MMX 5934): 0.25 µg/mL
MIC0 ([7]; A. fumigatus MMX 5938): 0.25 µg/mL
MIC0 ([7]; A. fumigatus MMX 5939): 2 µg/mL
MIC0 [8, 23]: 0.25 µg/mL

CC[C@H](C)C[C@H](C)CCCCCCCCC(=O)N[C@H]1C[C@@H](O)[C@@H](NCCN)NC(=O)[C@@H]2[C@@H](O)CCN2C(=O)[C@H]([C@H](O)CCN)NC(=O)[C@H]([C@H](O)[C@@H](O)c2ccc(O)cc2)NC(=O)[C@@H]2C[C@@H](O)CN2C(=O)[C@H]([C@@H](C)O)NC1=O [CASP]
MIC2 (50% inhibition) [1, 9]: 0.12 µg/mL
MIC2 (50% inhibition) [1, 10]: 0.12 µg/mL
MIC2 (50% inhibition) ([1]; isolate MMX 7087 (Susceptible)): 0.12 µg/mL
MIC2 (50% inhibition) ([1]; isolate MMX 7093 (FLU-R)): 0.12 µg/mL
MIC2 (50% inhibition) ([1]; isolate MMX 7101 (FLU-R)): 0.12 µg/mL
MIC2 (50% inhibition) [1, 11]: >8 µg/mL
MIC2 (50% inhibition) ([1]; isolate MMX 7111 (Susceptible)): 0.12 µg/mL
MIC2 (50% inhibition) [1, 12]: 0.5 µg/mL
MIC2 (50% inhibition) [1, 13]: >8 µg/mL
MIC2 (50% inhibition) ([1]; isolate MMX 7549 (Susceptible)): 0.06 µg/mL
MIC2 (50% inhibition) [2, 14]: 0.06 µg/mL
MIC2 (50% inhibition) [2, 15]: 0.25 µg/mL
MIC2 (50% inhibition) [2, 16]: 0.06 µg/mL
MIC2 (50% inhibition) [2, 17]: 0.06 µg/mL
MIC2 (50% inhibition) [2, 18]: 0.06 µg/mL
MIC2 (50% inhibition) [2, 19]: 0.06 µg/mL
MIC2 (50% inhibition) [2, 20]: 8 µg/mL
MIC2 (50% inhibition) [2, 21]: 0.06 µg/mL
MIC2 (50% inhibition) [2, 22]: 0.06 µg/mL
MIC2 (50% inhibition) ([2]; isolate MMX 7445 (FLU-R, VORI-R), result after 48 hr incubation (insufficient growth at 24 hr)): 0.06^a μg/mL
MEC (minimum effective concentration) [3, 35]: 0.06^b μg/mL
MIC2 (50% inhibition) ([4]; isolate ATCC 6258 (MICA-I)): 0.25 µg/mL
MIC2 (50% inhibition) [4, 24]: 0.012 µg/mL
MIC2 (50% inhibition) [4, 25]: 0.12 µg/mL
MIC2 (50% inhibition) ([4]; isolate MMX 7125 (Susceptible)): 0.25 µg/mL
MIC2 (50% inhibition) ([4]; isolate MMX 7128 (Susceptible)): 0.25 µg/mL
MIC2 (50% inhibition) ([4]; isolate MMX 7141 (Susceptible)): 0.25 µg/mL
MIC2 (50% inhibition) ([4]; isolate MMX 7153 (MICA-R)): 0.25 µg/mL
MIC2 (50% inhibition) ([4]; isolate MMX 7155 (Susceptible)): 0.25 µg/mL
MIC2 (50% inhibition) ([4]; isolate MMX 7563 (Susceptible)): 0.12 µg/mL
MIC2 (50% inhibition) [4, 26]: 0.25 µg/mL
MIC2 (50% inhibition) ([5]; isolate MMX 9862 (Susceptible)): 0.12 µg/mL
MIC2 (50% inhibition) [5, 27]: 0.12^b μg/mL
MIC2 (50% inhibition) [5, 28]: 0.25^b μg/mL
MIC2 (50% inhibition) [5, 29]: 0.25^b μg/mL
MIC2 (50% inhibition) [5, 30]: 0.12^b μg/mL
MIC2 (50% inhibition) [5, 31]: 0.12 µg/mL
MIC2 (50% inhibition) [5, 32]: 0.25 µg/mL
MIC2 (50% inhibition) [5, 33]: 0.25 µg/mL
MIC2 (50% inhibition) [5, 34]: 0.25 µg/mL
MIC2 (50% inhibition) ([5]; isolate MMX 9871 (Susceptible)): 0.25^b μg/mL
MEC (minimum effective concentration) ([6]; A. flavus ATCC 22546): 0.06 µg/mL
MEC (minimum effective concentration) ([6]; A. flavus ATCC 204304): 0.06 µg/mL
MEC (minimum effective concentration) ([6]; A. flavus MMX 7935): 0.03 µg/mL
MEC (minimum effective concentration) ([7]; A. fumigatus ATCC 204305): 0.25 µg/mL
MEC (minimum effective concentration) ([7]; A. fumigatus ATCC MYA-3626): 0.06 µg/mL
MEC (minimum effective concentration) ([7]; A. fumigatus MMX 5934): 0.12 µg/mL
MEC (minimum effective concentration) ([7]; A. fumigatus MMX 5938, 48 hr only, insufficient growth for 24 hr read): 0.12^b μg/mL
MEC (minimum effective concentration) ([7]; A. fumigatus MMX 5939): 0.12 µg/mL
MEC (minimum effective concentration) [8, 35]: 0.12^b μg/mL
